# Assay results taken from patent US20230365592A1 (Agios Pharmaceuticals, Inc., priority 2022, published 2023).
# Target: T1, human PAH with the R408W mutation (Homo sapiens, UniProt P00439, R408W)
# T1 construct: expressed in transfected cells
# T1 sequence (P00439 1-452 R408W): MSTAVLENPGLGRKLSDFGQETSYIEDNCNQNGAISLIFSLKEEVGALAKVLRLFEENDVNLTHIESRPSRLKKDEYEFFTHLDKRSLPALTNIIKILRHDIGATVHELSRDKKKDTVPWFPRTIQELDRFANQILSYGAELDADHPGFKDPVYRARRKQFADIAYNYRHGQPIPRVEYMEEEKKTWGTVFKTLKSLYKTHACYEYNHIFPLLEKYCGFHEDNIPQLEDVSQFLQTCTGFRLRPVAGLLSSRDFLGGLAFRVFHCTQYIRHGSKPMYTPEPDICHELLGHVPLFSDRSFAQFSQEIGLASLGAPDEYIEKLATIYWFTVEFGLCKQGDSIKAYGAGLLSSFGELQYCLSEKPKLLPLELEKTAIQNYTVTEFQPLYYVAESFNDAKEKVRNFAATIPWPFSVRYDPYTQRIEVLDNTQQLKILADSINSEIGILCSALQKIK
# Assay: Cell Based Phenylalanine Flux Assay;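 note: after compound treatment, cells received sepiapterin plus isotope-labelled Phenylalanine for 4 hours, then labelled Tyrosine in the medium was quantified, 10-point 2-fold dilution series run in duplicate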
# Settings: A375 cells expressing human R408W PAH; 24 hrs compound incubation; 13C-Tyrosine by LC-MS; average where tested multiple times; read-out: AC50
row,SMILES,AC50 [nM]
1,"C[C@@H](O)c1nc(C(F)F)c(C(=O)N2CCc3[nH]cnc3[C@H]2c2cc3ccccn3n2)o1 [Example 690, (4-(difluoromethyl)-2-((R)-1-hydroxyethyl)oxazol-5-yl)((S)-4-(pyrazolo[1,5-a]pyridin-2-yl)-6,7-dihydro-1H-imidazo[4,5-c]pyridin-5(4H)-yl)methanone]",< 500
2,"CC(C)(C#N)c1nc(C(F)F)c(C(=O)N2CCc3[nH]cnc3[C@H]2c2cc3ccccn3n2)o1 [Example 699, (S)-2-(4-(difluoromethyl)-5-(4-(pyrazolo[1,5-a]pyridin-2-yl)-4,5,6,7-tetrahydro-1H-imidazo[4,5-c]pyridine-5-carbonyl)oxazol-2-yl)-2-methylpropanenitrile]",< 500
3,"CC(C)(O)c1nc(C(F)F)c(C(=O)N2CCc3[nH]cnc3[C@H]2c2cc3c(Cl)cccn3n2)o1 [Example 700, (S)-(4-(4-chloropyrazolo[1,5-a]pyridin-2-yl)-6,7-dihydro-1H-imidazo[4,5-c]pyridin-5(4H)-yl)(4-(difluoromethyl)-2-(2-hydroxypropan-2-yl)oxazol-5-yl)methanone]",< 500
4,"CC(C)(O)c1nc(C(F)F)c(C(=O)N2CCc3[nH]cnc3[C@@H]2c2cc3c(Cl)cccn3n2)o1 [Example 701, (R)-(4-(4-chloropyrazolo[1,5-a]pyridin-2-yl)-6,7-dihydro-1H-imidazo[4,5-c]pyridin-5(4H)-yl)(4-(difluoromethyl)-2-(2-hydroxypropan-2-yl)oxazol-5-yl)methanone]",1000 to 5000
5,"C[C@@H](O)c1nc(C(F)F)c(C(=O)N2CCc3[nH]cnc3[C@H]2c2cc3c(Cl)cccn3n2)o1 [Example 702, ((S)-4-(4-chloropyrazolo[1,5-a]pyridin-2-yl)-6,7-dihydro-1H-imidazo[4,5-c]pyridin-5(4H)-yl)(4-(difluoromethyl)-2-((R)-1-hydroxyethyl)oxazol-5-yl)methanone]",< 500
6,"C[C@@H](O)c1nc(C(F)F)c(C(=O)N2CCc3[nH]cnc3[C@@H]2c2cc3c(Cl)cccn3n2)o1 [Example 703, ((R)-4-(4-chloropyrazolo[1,5-a]pyridin-2-yl)-6,7-dihydro-1H-imidazo[4.5-c]pyridin-5(4H)-yl)(4-(difluoromethyl)-2-((R)-1-hydroxyethyl)oxazol-5-yl)methanone]",1000 to 5000
7,"O=C(c1oc(C2(O)CC2)nc1C(F)F)N1CCc2[nH]cnc2[C@H]1c1cc2c(Cl)cccn2n1 [Example 704, (S)-(4-(4-chloropyrazolo[1,5-a]pyridin-2-yl)-6,7-dihydro-1H-imidazo[4,5-c]pyridin-5(4H)-yl)(4-(difluoromethyl)-2-(1-hydroxycyclopropyl)oxazol-5-yl)methanone]",< 500
8,"Cc1nc([C@@H](C)O)oc1C(=O)N1CCc2[nH]cnc2[C@H]1c1cc2c(Cl)cccn2n1 [Example 706, ((S)-4-(4-chloropyrazolo[1,5-a]pyridin-2-yl)-6,7-dihydro-1H-imidazo[4,5-c]pyridin-5(4H)-yl)(2-((R)-1-hydroxyethyl)-4-methyloxazol-5-yl)methanone]",< 500
9,"Cc1nc([C@H](C)O)oc1C(=O)N1CCc2[nH]cnc2[C@H]1c1cc2c(Cl)cccn2n1 [Example 708, ((S)-4-(4-chloropyrazolo[1,5-a]pyridin-2-yl)-6,7-dihydro-1H-imidazo[4,5-c]pyridin-5(4H)-yl)(2((S)-1-hydroxyethyl)-4-methyloxazol-5-yl)methanone]",< 500
10,"C[C@@H](O)c1nc(C(F)F)c(C(=O)N2CCc3[nH]cnc3[C@H]2c2cc3c(F)cccn3n2)o1 [Example 710, (4-(difluoromethyl)-2-((R)-1-hydroxyethyl)oxazol-5-yl)((s)-4-(4-fluoropyrazolo[1,5-a]pyridin-2-yl)-6,7-dihydro-1H-imidazo[4,5-c]pyridin-5(4H)-yl)methanone]",< 500
11,"CC(C)(O)c1nc(C(F)F)c(C(=O)N2CCc3[nH]cnc3[C@H]2c2cc3c(F)cccn3n2)o1 [Example 714, (S)-(4-(difluoromethyl)-2-(2-hydroxypropan-2-yl)oxazol-5-yl)(4-(4-fluoropyrazolo[1,5-a]pyridin-2-yl)-6,7-dihydro-1H-imidazo[4,5-c]pyridin-5(4H)-yl)methanone]",< 500
12,"CC(C)(O)c1nc(C(F)F)c(C(=O)N2CCc3[nH]cnc3[C@@H]2c2cc3c(F)cccn3n2)o1 [Example 715, (R)-(4-(difluoromethyl)-2-(2-hydroxypropan-2-yl)oxazol-5-yl)(4-(4-fluoropyrazolo[1,5-a]pyridin-2-yl)-6,7-dihydro-1H-imidazo[4,5-c]pyridin-5(4H)-yl)methanone]",> 5000

# Other lines, results leading:
row,AC50 [nM],SMILES
1,< 500,"Cn1cc(-c2nnc(C(=O)N3CCc4[nH]cnc4[C@H]3c3cc4c(Cl)cccn4n3)o2)cn1 [Example 688, (S)-(4-(4-chloropyrazolo[1,5-a]pyridin-2-yl)-6,7-dihydro-1H-imidazo[4,5-c]pyridin-5(4H)-yl)(5-(1-methyl-1H-pyrazol-4-yl)-1,3,4-oxadiazol-2-yl)methanone]"
2,> 5000,"Cn1cc(-c2nnc(C(=O)N3CCc4[nH]cnc4[C@@H]3c3cc4c(Cl)cccn4n3)o2)cn1 [Example 689, (R)-(4-(4-chloropyrazolo[1,5-a]pyridin-2-yl)-6,7-dihydro-1H-imidazo[4,5-c]pyridin-5(4H)-yl)(5-(1-methyl-1H-pyrazol-4-yl)-1,3,4-oxadiazol-2-yl)methanone]"
3,< 500,"C[C@H](O)c1nc(C(F)F)c(C(=O)N2CCc3[nH]cnc3[C@H]2c2cc3ccccn3n2)o1 [Example 692, (4-(difluoromethyl)-2-((S)-1-hydroxyethyl)oxazol-5-yl)((S)-4-(pyrazolo[1,5-a]pyridin-2-yl)-6,7-dihydro-1H-imidazo[4,5-c]pyridin-5(4H)-yl)methanone]"
4,> 5000,"C[C@H](O)c1nc(C(F)F)c(C(=O)N2CCc3[nH]cnc3[C@@H]2c2cc3ccccn3n2)o1 [Example 693, (4-(difluoromethyl)-2-((S)-1-hydroxyethyl)oxazol-5-yl)((R)-4-(pyrazolo[1,5-a]pyridin-2-yl)-6,7-dihydro-1H-imidazo[4,5-c]pyridin-5(4H)-yl)methanone]"
5,< 500,"Cn1nc(Cl)nc1C(=O)N1CCc2[nH]cnc2[C@H]1c1cc2ccccn2n1 [Example 694, (S)-(3-chloro-1-methyl-1H-1,2,4-triazol-5-yl)(4-(pyrazolo[1,5-a]pyridin-2-yl)-6,7-dihydro-1H-imidazo[4,5-c]pyridin-5(4H)-yl)methanone]"
6,> 5000,"Cn1nc(Cl)nc1C(=O)N1CCc2[nH]cnc2[C@@H]1c1cc2ccccn2n1 [Example 695, (R)-(3-chloro-1-methyl-1H-1,2,4-triazol-5-yl)(4-(pyrazolo[1,5-a]pyridin-2-yl)-6,7-dihydro-1H-imidazo[4,5-c]pyridin-5(4H)-yl)methanone]"
7,< 500,"Cn1cc(-c2nnc(C(=O)N3CCc4[nH]cnc4[C@H]3c3cc4ccc(Cl)cn4n3)o2)cn1 [Example 696, (S)-(4-(6-chloropyrazolo[1,5-a]pyridin-2-yl)-6,7-dihydro-1H-imidazo[4,5-c]pyridin-5(4H)-yl)(5-(1-methyl-1H-pyrazol-4-yl)-1,3,4-oxadiazol-2-yl)methanone]"
8,> 5000,"Cn1cc(-c2nnc(C(=O)N3CCc4[nH]cnc4[C@@H]3c3cc4ccc(Cl)cn4n3)o2)cn1 [Example 697, (R)-(4-(6-chloropyrazolo[1,5-a]pyridin-2-yl)-6,7-dihydro-1H-imidazo[4,5-c]pyridin-5(4H)-yl)(5-(1-methyl-1H-pyrazol-4-yl)-1,3,4-oxadiazol-2-yl)methanone]"
